Measurements taken from patent US5599807A, “Steroid derivatives” (Senju Pharmaceutical Co., Ltd., priority 1993, dated 1997).
Where a name gives a salt, the structure may show the parent alone.

Tested on: rat carrageenin-induced pleuritis
Assay: Inhibitory effect on rat carrageenin-induced pleuritis (dye leakage into pleural cavity)
Format: in vivo, Wistar rats
Details: NFLX-DX 13.4 mg/kg orally 30 min before induction, n = 7
Experimental: Inhibitory Effect of the Compound on Rat Carrageenin-induced Pleuritis The inhibitory effect of norfloxacin-dexamethasone ester hydrochloride on rat carrageenin-induced pleuritis was evaluated. [Test substance] Norfloxacin-dexamethasone ester hydrochloride (abbreviatedname: NFLX-DX) Wistar rats weighing about 200 g were used. Two groups receiving (1) distilled water (5 ml/kg) and (2) NFLX-DX (13.4 mg/kg), respectively, were provided. Under pentobarbital anesthesia, 0.1 ml of 2% λ-carrageenin was injected into the rat pleura to induce pleuritis. Five hours after the construction of pleuritis, a 5% aqueous solution of Pontamine Sky Blue (2 mg/kg) was injected intravenously, and 20 minutes later the rat was sacrificed and the pleural exudate was collected using a tube. The amount of dye leakage in the pleural cavity (μg/site) was estimated from the amount and absorbance (625 nm) of the exudate sample (ml) by the calibration curve method. The test substance was administered orally (5 ml/kg) 30 minutes before induction of inflammation.

CCn1cc(C(=O)OCC(=O)[C@@]2(O)[C@H](C)C[C@H]3[C@@H]4CCC5=CC(=O)C=C[C@]5(C)[C@@]4(F)[C@@H](O)C[C@@]32C)c(=O)c2cc(F)c(N3CCNCC3)cc21 [NFLX-DX, 9-Fluoro-11β,17,21-trihydroxy-16α-methyl-1,4-pregnadiene-3, 20-dione-21-[1-ethyl-6-fluoro-1,4-dihydro-7-(1-piperazinyl)-4-oxo-3-quinolinecarboxylate]hydrochloride]
Dye leakage (mean ± standard error, * p < 0.01 vs control (distilled water, 74.81 ± 10.70)): 20.02 ± 3.80 μg/site | % Inhibition (inhibition of dye leakage vs control (distilled water)): 73.0%
